Source: paper PMC10003107, “Selectivity of Hydroxamate- and Difluoromethyloxadiazole-Based Inhibitors of Histone Deacetylase 6 In Vitro and in Cells” (International Journal of Molecular Sciences, 2023)

What was measured:
tubulin acetylation = assay: Tubulin acetylation in RPMI-8226 cells by quantitative Western blotting; assay type: cell-based; conditions: Homo sapiens, RPMI-8226, 6 h; read-out: IC50 tubulin deacetylation (relative tubulin acetylation)
HDAC6-nanoLuc = molecular target: T1, HDAC6-nanoLuc (Homo sapiens, UniProt Q9UBN7); assay: nanoBRET target engagement assay, HDAC6; assay type: cell-based; conditions: HEK293T/17 cells stably expressing HDAC6-nanoLuc, 2 h
T1 sequence (Q9UBN7 1-1215): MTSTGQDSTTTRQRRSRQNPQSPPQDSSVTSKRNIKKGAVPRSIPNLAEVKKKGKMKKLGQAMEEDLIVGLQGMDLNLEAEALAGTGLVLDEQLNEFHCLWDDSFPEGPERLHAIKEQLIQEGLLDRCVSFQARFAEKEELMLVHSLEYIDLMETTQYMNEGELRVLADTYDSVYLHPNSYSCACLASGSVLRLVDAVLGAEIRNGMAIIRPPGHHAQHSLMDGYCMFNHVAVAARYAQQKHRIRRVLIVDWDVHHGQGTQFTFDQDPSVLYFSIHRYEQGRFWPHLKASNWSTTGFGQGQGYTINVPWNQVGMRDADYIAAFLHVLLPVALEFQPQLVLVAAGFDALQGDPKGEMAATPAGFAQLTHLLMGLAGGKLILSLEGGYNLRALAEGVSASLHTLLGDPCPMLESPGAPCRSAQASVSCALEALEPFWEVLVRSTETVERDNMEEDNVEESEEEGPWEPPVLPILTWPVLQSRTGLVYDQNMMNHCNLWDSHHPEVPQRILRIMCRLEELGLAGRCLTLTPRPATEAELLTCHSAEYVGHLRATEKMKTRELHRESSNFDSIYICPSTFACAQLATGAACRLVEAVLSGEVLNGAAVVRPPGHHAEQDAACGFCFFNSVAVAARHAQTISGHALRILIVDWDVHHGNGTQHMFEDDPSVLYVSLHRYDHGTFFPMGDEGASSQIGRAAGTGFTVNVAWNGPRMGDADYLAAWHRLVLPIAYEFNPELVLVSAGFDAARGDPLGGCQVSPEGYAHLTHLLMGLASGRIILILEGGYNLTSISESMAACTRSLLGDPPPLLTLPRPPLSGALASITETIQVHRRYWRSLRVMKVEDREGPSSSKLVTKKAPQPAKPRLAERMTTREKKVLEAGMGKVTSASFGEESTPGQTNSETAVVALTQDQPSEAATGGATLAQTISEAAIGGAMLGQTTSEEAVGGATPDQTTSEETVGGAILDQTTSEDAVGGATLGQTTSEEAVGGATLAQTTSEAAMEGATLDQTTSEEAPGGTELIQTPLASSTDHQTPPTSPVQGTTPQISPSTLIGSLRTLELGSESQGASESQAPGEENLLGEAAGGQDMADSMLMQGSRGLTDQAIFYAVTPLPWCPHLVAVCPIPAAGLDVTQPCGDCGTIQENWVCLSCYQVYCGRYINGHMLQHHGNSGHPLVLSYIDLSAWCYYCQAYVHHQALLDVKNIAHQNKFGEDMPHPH

HDAC1 = molecular target: T2, HDAC1 (Homo sapiens, UniProt Q13547); assay: In vitro deacetylation assay, HDAC1 (RHKK substrate); assay type: biochemical; conditions: for IC50: purified human HDAC1, RHK[AcK]-AMC (RHKK) substrate; for SI (HD6/HD1) RHKK: ratio of IC50 HDAC1 (RHKK) divided by IC50 HDAC6
T2 construct: HDAC1 1-482 Addgene; Strep-FLAG-HALO (N); made in house; host or cells: HEK293/T17
T2 sequence (Q13547 whole entry): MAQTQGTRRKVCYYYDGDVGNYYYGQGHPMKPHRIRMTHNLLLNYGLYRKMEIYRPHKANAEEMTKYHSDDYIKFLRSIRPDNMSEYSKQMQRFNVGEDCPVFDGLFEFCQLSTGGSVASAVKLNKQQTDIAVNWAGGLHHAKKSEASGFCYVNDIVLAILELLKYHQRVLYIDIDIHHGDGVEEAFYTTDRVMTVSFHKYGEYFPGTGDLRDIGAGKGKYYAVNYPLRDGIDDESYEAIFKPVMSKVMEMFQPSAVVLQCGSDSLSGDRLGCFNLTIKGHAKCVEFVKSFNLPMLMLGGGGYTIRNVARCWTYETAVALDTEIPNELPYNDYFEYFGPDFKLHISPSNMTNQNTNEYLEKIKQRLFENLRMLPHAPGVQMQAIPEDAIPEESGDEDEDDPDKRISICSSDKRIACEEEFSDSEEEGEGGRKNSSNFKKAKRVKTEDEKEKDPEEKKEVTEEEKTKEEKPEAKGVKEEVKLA

HDAC10 = molecular target: T3, HDAC10 (Homo sapiens, UniProt Q969S8); assay: In vitro deacetylation assay, HDAC10 (fluorescein-labeled N8-acetylspermidine, RP-HPLC); assay type: biochemical; conditions: for IC50: purified human HDAC10, read-out: IC50 HDAC10; for SI (HD6/HD10): ratio of IC50 HDAC10 divided by IC50 HDAC6
T3 construct: HDAC10 1 – 667 Open Biosystems; Strep-FLAG-HALO (N); made in house; host or cells: HEK293/T17
T3 sequence (Q969S8 1-667): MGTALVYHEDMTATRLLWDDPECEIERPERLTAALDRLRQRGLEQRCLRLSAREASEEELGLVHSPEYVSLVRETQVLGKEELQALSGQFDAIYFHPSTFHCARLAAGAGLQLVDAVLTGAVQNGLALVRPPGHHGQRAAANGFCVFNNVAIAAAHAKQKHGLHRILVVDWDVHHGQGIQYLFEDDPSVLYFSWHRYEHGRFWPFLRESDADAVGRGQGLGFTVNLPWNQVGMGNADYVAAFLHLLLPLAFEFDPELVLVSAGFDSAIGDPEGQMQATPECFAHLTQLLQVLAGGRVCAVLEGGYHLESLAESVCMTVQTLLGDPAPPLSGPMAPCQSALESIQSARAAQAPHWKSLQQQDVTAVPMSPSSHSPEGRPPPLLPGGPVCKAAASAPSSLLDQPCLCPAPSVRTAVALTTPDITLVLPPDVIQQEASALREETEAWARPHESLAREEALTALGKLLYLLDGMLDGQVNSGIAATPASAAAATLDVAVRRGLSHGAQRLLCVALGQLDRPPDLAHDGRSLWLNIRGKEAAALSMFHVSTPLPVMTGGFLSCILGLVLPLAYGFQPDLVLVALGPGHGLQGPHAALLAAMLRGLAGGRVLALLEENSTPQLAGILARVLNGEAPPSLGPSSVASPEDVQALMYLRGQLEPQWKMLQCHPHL

HDAC1-nanoLuc = HDAC1-nanoLuc (Homo sapiens, UniProt Q13547); assay: nanoBRET target engagement assay, HDAC1; assay type: cell-based; conditions: HEK293T/17 cells stably expressing HDAC1-nanoLuc, 2 h
Sequence of HDAC1-nanoLuc (Q13547 whole entry): as the sequence (Q13547 whole entry) above

IC50 (tubulin acetylation)	EC50 (HDAC6-nanoLuc)	IC50 (HDAC1)	SI (HD6/HD1) RHKK (HDAC1)	IC50 (HDAC10)	SI (HD6/HD10) (HDAC10)	EC50 (HDAC1-nanoLuc)	Structure (SMILES)
426 nM	270 nM	21700 nM	19,550	34 nM	30.6	> 50000 nM	O=C(NO)c1cnc(NC2(c3cccc(F)c3)CCCCC2)nc1 [ACY-775]
616 nM	160 nM	> 50000 nM	>25,000	> 50000 nM	>25,000	> 50000 nM	CS(=O)(=O)N(Cc1ccc(-c2nnc(C(F)F)o2)cn1)c1cccc(Cl)c1 [compound 7, N-(3-chlorophenyl)-N-((5-(5-(difluoromethyl)-1,3,4-oxadiazol-2-yl)pyridin-2-yl)methyl)methanesulfonamide]
